Key:
[1] = test system: lung non-small cell carcinoma A 549; test: In vitro cytotoxicity assay (resazurin reduction test); type: cell-based; conditions: Homo sapiens; A549; 48-h continuous drug exposure
From the text: (§1) Normal human fibroblasts were purchased from Promocell (Heidelberg, Germany). This frozen culture was obtained from foreskin waste and the cells used in this work were from the seventh to twelfth passage of the culture. M4Beu, a human melanoma cell line, was established in the laboratory of Dr. J. F. Doré (INSERM, Unit 218, Lyon, France) from metastatic biopsy specimens and maintained in cell culture for almost 20 years in our lab. Breast cancer adenocarcinoma MCF 7, prostatic adenocarcinoma PC 3, colon adenocarcinoma DLD-1, lung non-small cell carcinoma A 549, ovary adenocarcinoma PA1 human cell lines and L 929 murine cell line were purchased from the European Collection of Cell Cultures (ECACC; Salisbury, United Kingdom). Murine Melanoma B16 was purchased from American Type of Culture Collection (ATCC, Manassas, USA) and murine colon carcinoma cell line CT-26 was obtained from Dr I. J. Fidler (University of Texas M.D. Anderson Cancer Center, Houston).
(§2) Stock cell cultures were maintained as monolayers in 75cm^2 culture flasks in Glutamax Eagle's minimum essential medium with Earle's salts (MEM; Gibco BRL, Paisley, UK) supplemented with 10% fetal calf serum (Sigma, St Quentin Fallavier, France), 1 mM sodium pyruvate (Gibco), 1X vitamins solution (Gibco), 1X non essential amino acids solution (Gibco) and 4 µg/ml of gentamicine (Gibco). Cells were grown at 37°C in a humidified atmosphere containing 5% CO2.
(§3) Cells were plated at a density of 5 x 10^3 cells per well in 96-well microplates (Nunclon™, Nunc, Roskilde, Denmark) in 150 µl of culture medium and were allowed to adhere for 16 h before treatment with the compound tested.
(§4) Stock solution of each compound was prepared in dimethylsulfoxide (DMSO) and kept at -20°C. until use. The percentage of DMSO was kept at 0.5% (v/v) whichever the concentration tested. […] Fifty microliters of a 4X solution in MEM was then added and a 48-h continuous drug exposure protocol was used. Then, the cytotoxic effect of compounds on tumour cells was tested by using Resazurin reduction test.
(§5) Resazurin was identified as the Alamar blue dye (O'Brien, J. et al.; European Journal of Biochemistry, 267, 5421-6, (2000)). The resazurin reduction test (RRT) was carried out according to the protocol described here. Briefly, plates were rinsed by 200 µl PBS (37° C, Gibco) using a multichannel dispenser (Labsystems, Helsinki, Finland) and emptied by overturning on absorbent toweling. Then, 150 µl of a 25 µg/ml solution of resazurin in MEM without SVF nor Phenol red was added in each well. The plates were incubated 1 h at 37° C. in an humidified atmosphere with 5% of CO2 for fluorescence development by living cells. Fluorescence was then measured on the automated 96-well plate reader Fluoroskan Ascent FL™ (Labsystems) using an excitation wavelength of 530 nm and an emission one of 590 nm.
(§6) Cytotoxic activity has been tested against the six human tumour cell lines breast adenocarcinoma MCF-7, colon adenocarcinoma DLD-1, ovary adenocarcinoma PA1, prostatic adenocarcinoma PC3, lung carcinoma A549, melanoma M4Beu and a primary culture of human fibroblasts.

ovary adenocarcinoma PA1 = test: as above; type: cell-based; conditions: Homo sapiens, 48-h continuous drug exposure
From the text: as §1, §2, §3, §4, §5, §6

Normal human fibroblasts = test: as above; type: cell-based; conditions: Fibroblast, 48-h continuous drug exposure
From the text: as §1, §2, §3, §4, §5, §6

[2] = test system: M4Beu, a human melanoma cell line; test: as above; type: cell-based; conditions: 48-h continuous drug exposure
From the text: as §1, §2, §3, §4, §5, §6

[3] = test system: colon adenocarcinoma DLD-1; test: as above; type: cell-based; conditions: Homo sapiens, DLD1, 48-h continuous drug exposure
From the text: as §1, §2, §3, §4, §5, §6

[4] = test system: prostatic adenocarcinoma PC 3; test: as above; type: cell-based; conditions: Homo sapiens; PC3; 48-h continuous drug exposure
From the text: as §1, §2, §3, §4, §5, §6

[5] = Determination of the Maximum Tolerated Dose (MTD), acute toxicity after a single IP injection; type: in vivo, male OF1 mice; design: key to Clinical State Score (CSS) diarrhoea / Clinical State Score (CSS) rough coat / Clinical State Score (CSS) closed eyes / Clinical State Score (CSS) lethargy / Clinical State Score (CSS) total: per mouse 0 = absent, 1 = present per sign; summed over group; conditions: for dosage inducing high side effects (mainly diarrhoea): as early as Day 1 after IP administration; for MTD at 2 weeks: male, OF1, mouse, in vivo, zero deaths, maximal weight loss 15 % at Day 1, CSS as low as possible; for MTD at 2 weeks / doses inducing 100% mortality: single IP administration; for Clinical State Score (CSS) closed eyes / Clinical State Score (CSS) diarrhoea / Clinical State Score (CSS) lethargy / Clinical State Score (CSS) rough coat / Clinical State Score (CSS) total: group sum; for Number of deaths (day): non-tumour bearing mice
Description: Drugs were dissolved in a mixture of dimethylacetamide (Sigma) and oleic macrogolglycerides (Labrafil® M1944Cs, Gattefossé) (10:90%, vol/vol).
Initially, the Maximum Tolerated Dose (MTD) after intraperitoneal (IP) administration was determinated.
For MTD determination, study was conducted on male OF1 mice weighing about 30 g, 6-weeks old (Charles River, France). Groups of five to six mice received a single IP injection of each drug at variable doses according to the compound (see Tables 2, 3 and 4).
Individual dose were based on the body weight of each mouse. All the mice received a constant injection volume of 250 µL per 25 g of body weight. A group of seven control mice received the vehicle.
After IP injection, mice were weighed and observed every two days over a 2 week-period to evaluate general clinical state. For each animal, a clinical state score (CSS) was calculated based on the absence (value 0) or presence (value 1) of diarrhoea, lethargy, rough coat and closed eyes. CSS was then calculated per group by summing individual scores. Loss of weight and mortality were also recorded.

[6] = test system: Breast cancer adenocarcinoma MCF 7; test: In vitro cytotoxicity assay (resazurin reduction test); type: cell-based; conditions: Homo sapiens; MCF7; 48-h continuous drug exposure
From the text: as §1, §2, §3, §4, §5, §6

tumour cells = test: In vitro cytotoxicity assay, statements over all cell lines of Table 1; type: cell-based; conditions: Homo sapiens, PA-1
From the text: as §1, with “Houston). […]” for “Houston).”
Resazurin was identified as the Alamar blue dye (O'Brien, J. et al.; European Journal of Biochemistry, 267, 5421-6, (2000)). […] The plates were incubated 1 h at 37° C. in an humidified atmosphere with 5% of CO2 for fluorescence development by living cells. Fluorescence was then measured on the automated 96-well plate reader Fluoroskan Ascent FL™ (Labsystems) using an excitation wavelength of 530 nm and an emission one of 590 nm. […]

## CC(=O)OC[C@H]1O[C@@H](Oc2ccc(NC(=O)CNC(=O)CCCc3ccc(N(CCCl)CCCl)cc3)cc2)[C@H](F)[C@@H](OC(C)=O)[C@@H]1OC(C)=O [Compound 40a, N-{2-[4-(3,4,6-tri-O-acetyl-2-deoxy-2-fluoro-β-D-glucopyranosyloxy)phenyl]amino-2-oxoethyl}-4-{4-[bis(2-chloroethyl)amino]phenyl}butanamide]
[1]
  IC50: 10 ± 5 µM
Ovary adenocarcinoma PA1
  IC50: 1.5 ± 0.5 µM
Normal human fibroblasts
  IC50: 17 ± 6 µM
[2]
  IC50: 15 ± 6 µM
[3]
  IC50: 6 ± 2 µM
[4]
  IC50: 7 ± 2 µM
[5]
  dosage inducing high side effects (mainly diarrhoea): ≥ 0.07 mmol/kg
  MTD at 2 weeks: 140 µmol/kg
  doses inducing 100% mortality: 0.56 mmol/kg
[5]; single IP 0.07 mmol/kg
  Weight loss at day 1: 6.3%
  Clinical State Score (CSS) closed eyes: 0
  Clinical State Score (CSS) diarrhoea: 2
  Clinical State Score (CSS) lethargy: 0
  Clinical State Score (CSS) rough coat: 0
  Clinical State Score (CSS) total: 2
  Number of deaths (day): 0
[5]; single IP 0.14 mmol/kg
  Weight loss at day 1: 14.9%
  Clinical State Score (CSS) closed eyes: 0
  Clinical State Score (CSS) diarrhoea: 2
  Clinical State Score (CSS) lethargy: 0
  Clinical State Score (CSS) rough coat: 0
  Clinical State Score (CSS) total: 2
  Number of deaths (day): 0
[5]; single IP 0.18 mmol/kg
  Weight loss at day 1: 8.2%
  Clinical State Score (CSS) closed eyes: 0
  Clinical State Score (CSS) diarrhoea: 3
  Clinical State Score (CSS) lethargy: 0
  Clinical State Score (CSS) rough coat: 3
  Clinical State Score (CSS) total: 6
  Number of deaths (day): 2
[5]; single IP 0.21 mmol/kg
  Number of deaths (day): 3 (D6)
[5]; single IP 0.28 mmol/kg
  Weight loss at day 1: 18.3%
  Clinical State Score (CSS) closed eyes: 2
  Clinical State Score (CSS) diarrhoea: 4
  Clinical State Score (CSS) lethargy: 2
  Clinical State Score (CSS) rough coat: 0
  Clinical State Score (CSS) total: 8
  Number of deaths (day): 2 (D1)
[5]; single IP 0.42 mmol/kg
  Number of deaths (day): 3(D6)
[5]; single IP 0.56 mmol/kg
  Number of deaths (day): 5(D6,7,9,13,15)

## O=C(O)CCCc1ccc(N(CCCl)CCCl)cc1 [chlorambucil, reference compound]
[1]
  IC50: 43 ± 14 µM
Ovary adenocarcinoma PA1
  IC50: 2.8 ± 0.4 µM
Normal human fibroblasts
  IC50: 99 ± 2 µM
[6]
  IC50: > 100 µM
[2]
  IC50: > 100 µM
[3]
  IC50: 47 ± 17 µM
[5]
  dosage inducing high side effects (mainly diarrhoea): ≥ 0.0175 mmol/kg
  MTD at 2 weeks: 50 µmol/kg
  doses inducing 100% mortality: 0.14 mmol/kg
[5]; single IP 0.0175 mmol/kg
  Weight loss at day 1: 1.4%
  Number of deaths (day): 0
[5]; single IP 0.035 mmol/kg
  Weight loss at day 1: 6.1%
  Number of deaths (day): 0
[5]; single IP 0.05 mmol/kg
  Weight loss at day 1: 12.9%
  Number of deaths (day): 0
[5]; single IP 0.07 mmol/kg
  Weight loss at day 1: 13.1%
  Number of deaths (day): 0
[5]; single IP 0.09 mmol/kg
  Weight loss at day 1: 26%
  Number of deaths (day): 1 (D1)
[5]; single IP 0.14 mmol/kg
  Number of deaths (day): 4 (D1)
Tumour cells
  IC50: > 40 µM

## CC(=O)OC[C@H]1O[C@@H](NC(=O)CNC(=O)CCCc2ccc(N(CCCl)CCCl)cc2)[C@H](F)[C@@H](OC(C)=O)[C@@H]1OC(C)=O [Compound 21a, N-[2-(3,4,6-tri-O-acetyl-2-deoxy-2-fluoro-β-D-glucopyranosylamino)-2-oxoethyl]-4-{4-[bis(2-chloroethyl)amino]phenyl}butanamide]
[1]
  IC50: 5 ± 2 µM
Ovary adenocarcinoma PA1
  IC50: 1 ± 0.1 µM
Normal human fibroblasts
  IC50: 4.1 ± 0.1 µM
[6]
  IC50: 8 ± 2 µM
[2]
  IC50: 6.8 ± 0.9 µM
[3]
  IC50: 4 ± 3 µM
[4]
  IC50: 10 ± 2 µM
[5]
  dosage inducing high side effects (mainly diarrhoea): ≥ 0.14 mmol/kg
  MTD at 2 weeks: 140 µmol/kg
  doses inducing 100% mortality: 0.76 mmol/kg
[5]; single IP 0.07 mmol/kg
  Weight loss at day 1: 5.6%
  Clinical State Score (CSS) closed eyes: 0
  Clinical State Score (CSS) diarrhoea: 1
  Clinical State Score (CSS) lethargy: 0
  Clinical State Score (CSS) rough coat: 0
  Clinical State Score (CSS) total: 1
  Number of deaths (day): 0
[5]; single IP 0.14 mmol/kg
  Weight loss at day 1: 8.4%
  Clinical State Score (CSS) closed eyes: 0
  Clinical State Score (CSS) diarrhoea: 4
  Clinical State Score (CSS) lethargy: 0
  Clinical State Score (CSS) rough coat: 0
  Clinical State Score (CSS) total: 4
  Number of deaths (day): 0
[5]; single IP 0.18 mmol/kg
  Weight loss at day 1: 10.4%
  Clinical State Score (CSS) closed eyes: 0
  Clinical State Score (CSS) diarrhoea: 4
  Clinical State Score (CSS) lethargy: 0
  Clinical State Score (CSS) rough coat: 4
  Clinical State Score (CSS) total: 8
  Number of deaths (day): 1
[5]; single IP 0.21 mmol/kg
  Weight loss at day 1: 9.7%
  Clinical State Score (CSS) closed eyes: 0
  Clinical State Score (CSS) diarrhoea: 1
  Clinical State Score (CSS) lethargy: 2
  Clinical State Score (CSS) rough coat: 4
  Clinical State Score (CSS) total: 7
  Number of deaths (day): 1 (D1)
[5]; single IP 0.28 mmol/kg
  Number of deaths (day): 4 (D1)
[5]; single IP 0.56 mmol/kg
  Number of deaths (day): 4 (D1)
[5]; single IP 0.76 mmol/kg
  Number of deaths (day): 5 (D1)

From patent EP1881000A1, “Conjugates of 2-fluoro-2-deoxy-glucose and their uses as anti cancer agents” (INSTITUT NATIONAL DE LA SANTE ET DE LA RECHERCHE MEDICALE …, priority 2006, dated 2008)
